Test results reported in patent US20060223779A1, “Method of screening for inhibitors of human Fatty Acid-CoA Ligase 4” (priority 2000, published 2006).

How the values were obtained:
293 cells [1] = assay: Apoptosis by Cell Death Detection ELISA in 293 cells; assay type: cell-based, human; conditions: for effect of antioxidant pretreatment on AA-induced apoptosis: antioxidant 1 hr, then AA 200 μM
Procedure: (§1) FIG. 3: Arachidonic acid induces apoptosis via activation of caspase 3. (A) Determination of cell survival. AA was added to 293 cells at the indicated concentrations and the surviving fraction of cells was determined after 44 hr. The values shown are relative to the viability of cells that were not exposed to AA. (B) Increased apoptosis in cells exposed to AA. Cells were treated with AA (300 μM) or palmitic acid (300 μM) under the same conditions as in A, and then apoptosis was detected with an ELISA. The mean values from triplicate determinations are shown. […] The 293 cells were treated with AA (300 μM; +AA) or vehicle alone (−AA) for 44 hr. The nuclei were stained with DAPI, and DNA strand breaks in individual cells were detected with a fluorescent TUNEL assay. The upper panels are the same field of cells (−AA) photographed under UV (left panels) and FITC filters (right panels). The lower panels illustrate apoptotic cells (+AA). The magnification is 80×. (D) Immunostaining with an anti-active caspase 3 antibody. Upper panels, control cells (−AA); lower panels, cells exposed to 300 μM AA. Left panels, DAPI staining; right panels, immunostaining with an antibody selective for active caspase 3. The magnification is 100×. […] The 293 cells were preincubated with caspase inhibitors (including DMQD, a caspase 3 inhibitor, and YVAD, a caspase 1 and 4 inhibitor (Peptide Institute)) for 1 hr at the indicated concentrations, AA (300 μM) was added, and apoptosis was determined 44 hr later. The values represent the means from triplicate determinations.
(§2) Cell Death Detection ELISA. Cells were plated on 96 well-plates at 1×10^4 cells per well. AA was applied and apoptotic death was determined after 44 hr with the Cell Death Detection ELISA (Boehringer Mannheim).

293 cells [2] = assay: Cell survival (crystal violet staining) in 293 cells; assay type: cell-based, human; conditions: not shown
Procedure: as §1
(§3) Cell survival. Cell viability was determined with the crystal violet staining (See M. Hayakawa et al., 268 J. Biol. Chem. 11290-11295 (1993).

COX-2 stable 293 cells = assay: Apoptosis in stably transfected 293 cells with inducible COX-2 over-expression; assay type: cell-based, human; conditions: for effect on the prevention of apoptosis by COX-2: AA 300 μM, COX-2 over-expressing cells; for reduction of fatty acid-induced apoptosis by inducing COX-2 over-expression: COX-2 over-expression induced, n=3
Procedure: (A) Conditional expression level of FACL4 and COX-2 in stably transfected lines. Cells were treated with (+) or without (−) ponasterone (1 μg/ml) for 48 hr, and Western blotting was carried out with anti-FACL4 and anti-COX-2 antibodies, respectively. The loading was normalized with an anti-β actin antibody (ICN Biomedicals). […] The 293 cells stably transfected with an empty control vector (Ctl), FACL4 cDNA, COX-2 cDNA, and both FACL4 and COX-2 cDNAs were uninduced (−Pon) or induced for over-expression (+Pon) as in A. AA (300 μM) was added after 24 hr of induction and apoptosis was determined 44 hr later. […] The plot is a comparison of the relative apoptosis levels among the stable lines and is representative of three independent experiments. The values shown are the averages of triplicate determinations. […] Cells were uninduced (−Pon) or induced for over-expression as above. […] COX inhibitors were administered 6 hr later as indicated. AA (300 μM) was then added after 2 hr and apoptosis was determined 44 hr later. The plot is prepared as in B, and is a representative result from three independent experiments, in which triplicates were performed. Wt=wild-type, Mut=mutant, Met=50 μM 6-methoxy-2-naphthyl acetic acid, Indo=10 μM indomethacin. […] The COX-2, FACL4/COX-2 stable and control cells carrying an empty vector were induced for 48 hr, washed and incubated with 20 μM AA at 37° C. for 30 min. The amount of PGE2 synthesized was determined by ELISA. […] (E) The levels of free AA in the stable lines. The [^3H]
as §2
Stable cell lines. The ecdysone inducible system (Invitrogen) was used to construct stable lines over-expressing human FACL4, COX-2, COX-2 mutant, and both FACL4 and COX-2. […] The cDNAs were cloned into pIND(SP1) (Neomycin^r). The cDNA constructs, or the empty vector pIND(SP1) were transfected into EcR293 cells, which were then selected in 400 μg/ml geneticin and 400 μg/ml zeocin. […] The double stable line was generated by stably transfecting the COX-2 stable cells with another pIND(SP1)-FACL4 cDNA construct, in which the FACL4 cDNA was cloned into a pIND(SP1) (hygromycin^r) vector. The cells were selected in 400 μg/ml geneticin, 400 μg/ml zeocin, and 50 μg/ml hygromycin B. The positive colonies were screened as described above.

[3] = test system: FACL4/COX-2 double stable cells; assay: Cell survival of FACL4/COX-2 double stable cells after TNFα or A23187; assay type: cell-based, human
Procedure: FIG. 5: Enzymatic “sinks” for free arachidonic acid protect against TNFα_ and calcium ionophore_mediated cell killing. (A) Determination of cell survival. The cells were induced (+Pon) or not (−Pon) for 24 hr, and TNFα (1 ng/ml) or the calcium ionophore A23187 (5 μM) was added, and the cells were incubated for another 72 hr. The surviving fraction was determined and is plotted relative to that of the same line without TNFα or A23187 treatment. Ctl denotes control cells harboring an empty vector, while FACL4/COX-2 denotes the double stable line. (B) Measurement of the free AA. The FACL4/COX-2 cells were prelabeled with [^3H] AA, induced, and stimulated with A23187 (5 μM), and [^3H] AA release was measured at the indicated time intervals. The values are from one experiment that is representative of four independent determinations.
Stable cell lines. The ecdysone inducible system (Invitrogen) was used to construct stable lines over-expressing human FACL4, COX-2, COX-2 mutant, and both FACL4 and COX-2. […] The cDNAs were cloned into pIND(SP1) (Neomycin^r). The cDNA constructs, or the empty vector pIND(SP1) were transfected into EcR293 cells, which were then selected in 400 μg/ml geneticin and 400 μg/ml zeocin. A number of single colonies were screened for over-expression of FACL4, COX-2 wild type, and COX-2 mutant by immunoblotting against anti-FACL4 (See Y. Cao et al., 467 FEBS Lett. 263-267 (2000)), and anti-COX-2 antibodies (a gift from Dr. Jacques Maclouf), and by measurement of the CoA ligase activity for FACL4 (See D. B. Wilson et al., 257 J. Biol. Chem. 3510-3515 (1992)), or the PGE2 secretion for COX-2 wild type (ELISA assay, Assay Design, Inc.). The double stable line was generated by stably transfecting the COX-2 stable cells with another pIND(SP1)-FACL4 cDNA construct, in which the FACL4 cDNA was cloned into a pIND(SP1) (hygromycin^r) vector. The cells were selected in 400 μg/ml geneticin, 400 μg/ml zeocin, and 50 μg/ml hygromycin B. The positive colonies were screened as described above.
as §3

[4] = test system: colon and prostate cancer cells; conditions: by down-regulating Bcl-2; literature reports; cited from earlier work
HT 29 cells = assay: Apoptosis by Cell Death ELISA in HT 29 cells; assay type: cell-based
Procedure: HT 29 Cells were plated in 96 wells. Triacsin C and AA were added (in A), or triacsin C with either indomethacin (Indo) or sulindac (Sul) (in B) were added at the indicated concentrations. Indomethacin and sulindac are both cyclooxygenase (COX) inhibitors. Apoptosis was determined by Cell Death ELISA 44 hr later (A), and 72 hr later (B), respectively. […] The values shown are the means of triplicate determinations.
as §2

O=C1O[C@H]([C@@H](O)CO)C(O)=C1O [ascorbic acid]
effect of antioxidant pretreatment on AA-induced apoptosis (293 cells [1]; 293 cells, 44 hr): apoptosis decreased significantly

CCCCC[C@H](O)/C=C/[C@H]1[C@H](O)CC(=O)[C@@H]1C/C=C\CCCC(=O)O [PGE2]
cell viability in the presence of exogenous AA (293 cells [2]; 50 μM added directly): did not improve cell viability

CCCCCCCC/C=C\CCCCCCCC(=O)O [oleic acid]
induction of apoptosis by other fatty acids compared with AA (293 cells [1]): did not cause the same response

COc1ccc2cc(CC(=O)O)ccc2c1 [6-methoxy-2-naphthylacetic acid]
effect on the prevention of apoptosis by COX-2 (COX-2 stable 293 cells; 50 μM): abolished the prevention of apoptosis by COX-2 | effect on the improvement in cell survival in the double stable cells ([3]; double stable cells, not shown): partially abolished the improvement in cell survival

CS(=O)(=O)c1ccc(-n2nc(C(F)(F)F)cc2-c2ccc(F)cc2)cc1 [SC-58125]
reported effect on apoptosis [4]: enhance the induction of apoptosis

CS(=O)(=O)Nc1ccc([N+](=O)[O-])cc1OC1CCCCC1 [NS398]
reported effect on apoptosis [4]: enhance the induction of apoptosis

apo-transferrin: a membrane-impermeable antioxidant
effect of antioxidant pretreatment on AA-induced apoptosis (293 cells [1]; 293 cells, 44 hr): did not alter AA-induced apoptosis

Cc1c(C)c2c(c(C)c1O)CCC(C)(C(=O)O)O2 (stereo not shown) [trolox]
effect of antioxidant pretreatment on AA-induced apoptosis (293 cells [1]; 293 cells, 44 hr): apoptosis decreased significantly

tocopherol
effect of antioxidant pretreatment on AA-induced apoptosis (293 cells [1]; 293 cells, 44 hr): apoptosis decreased significantly

CCCCC[C@H](O)/C=C/C=C\C/C=C\C/C=C\CCCC(=O)O [15-HETE]
effect on cell survival (293 cells [2]; 293 cells): did not affect cell survival

TNFα
surviving fraction, induced cells ([3]; FACL4/COX-2 double stable cells induced with ponasterone, TNFα 1 ng/ml or A23187 5 μM, 72 hr, n=3): 70.5% | surviving fraction, uninduced cells ([3]; FACL4/COX-2 double stable cells without induction, TNFα 1 ng/ml or A23187 5 μM, 72 hr, n=3): 43.5%

CCCCCCCCCCCCCCCC(=O)O [palmitic acid]
induction of apoptosis by other fatty acids compared with AA (293 cells [1]): did not cause the same response | apoptosis (mono- and oligo-nucleosomes) over the control (293 cells [1]; 293 cells, 300 μM, 44 hr): no increase | fold-increase in apoptosis after fatty acid treatment (COX-2 stable 293 cells; 200 μM): 4.2 fold | reduction of fatty acid-induced apoptosis by inducing COX-2 over-expression (COX-2 stable 293 cells): 8.1%

CC/C=C\C/C=C\C/C=C\C/C=C\C/C=C\C/C=C\CCC(=O)O [DHA, docosahexaenoic acid]
fold-increase in apoptosis after fatty acid treatment (COX-2 stable 293 cells; 100 μM): 15.1 fold | reduction of fatty acid-induced apoptosis by inducing COX-2 over-expression (COX-2 stable 293 cells): 18.5%

CC(Cc1ccc(O)c(O)c1)C(C)Cc1ccc(O)c(O)c1 (stereo not shown) [NDGA]
induction of apoptosis (293 cells [1]; 293 cells): induced apoptosis

CCC/C=C/C/C=C/C=C/C=N/NN=O [triacsin C]
cell death with triacsin C alone (HT 29 cells; 2 μM): did not cause cell death | increase in apoptosis compared to control cells (HT 29 cells; 10 μM): 9 fold | induction of apoptosis (HT 29 cells; Cell Death ELISA): induced apoptosis in a concentration-dependent manner | increase of the apoptosis-inducing effect of triacsin C in the presence of sulindac (HT 29 cells; plus sulindac, 72 hr): 4-8 fold | apoptosis with triacsin C when indomethacin was added (HT 29 cells; triacsin C 2 μM plus indomethacin, 72 hr): induced apoptosis | sensitization to AA-induced apoptosis (HT 29 cells; triacsin C plus AA, 44 hr): sensitized cells to AA-induced apoptosis

CC/C=C\C/C=C\C/C=C\C/C=C\C/C=C\CCCC(=O)O [EPA, eicosapentaenoic acid]
fold-increase in apoptosis after fatty acid treatment (COX-2 stable 293 cells; 200 μM): 9.1 fold | reduction of fatty acid-induced apoptosis by inducing COX-2 over-expression (COX-2 stable 293 cells): 34.0%

CCCCC[C@H](O)/C=C/[C@H]1C(=O)C=C[C@@H]1C/C=C\CCCC(=O)O [PGJ2]
cell viability in the presence of exogenous AA (293 cells [2]; 5 μM added directly): did not improve cell viability

z-YVAD-fmk
blocking of AA-induced apoptosis by caspase inhibitor (293 cells [1]; 293 cells preincubated 1 hr with inhibitor, AA 300 μM, 44 hr): not

COc1ccc2c(c1)c(CC(=O)O)c(C)n2C(=O)c1ccc(Cl)cc1 [indomethacin]
effect on the prevention of apoptosis by COX-2 (COX-2 stable 293 cells; 10 μM): did not alter the apoptosis response
